Experimental data as given in patent publication US20220324876A1, “4-SUBSTITUTED PYRANO[3,4,b]PYRAZINE KAPPA AGONISTS FOR TREATING DRUG DEPENDENCY” (The Rockefeller University, priority 2019, published 2022).
Where two headings read alike, the source gives them in different places.

Molecular target: T1, human kappa opioid receptors (Homo sapiens, UniProt P41145)
T1 construct: expressed in transfected cells; host or cells: U2OS
Assay: [35S]GTPγS binding, membranes from U2OS cells
Format: biochemical
Conditions: for Emax: read-out: GTPγS (% efficacy)

T1 sequence (P41145 whole entry): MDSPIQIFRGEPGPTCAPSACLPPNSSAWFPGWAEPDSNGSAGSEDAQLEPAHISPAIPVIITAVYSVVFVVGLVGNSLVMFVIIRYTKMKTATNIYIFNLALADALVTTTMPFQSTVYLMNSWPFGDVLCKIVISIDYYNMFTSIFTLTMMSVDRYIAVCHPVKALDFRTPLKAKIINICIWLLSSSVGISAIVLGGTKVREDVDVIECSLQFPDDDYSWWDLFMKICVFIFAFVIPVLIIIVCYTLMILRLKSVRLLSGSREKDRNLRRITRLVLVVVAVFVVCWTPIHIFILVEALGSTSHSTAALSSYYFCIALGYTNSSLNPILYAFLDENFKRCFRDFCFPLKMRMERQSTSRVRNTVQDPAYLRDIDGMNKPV

| Structure (SMILES) | EC50 (GTPγS EC50 (nM), Table D) [nM] | Emax [%] | EC50 [nM] |
| --- | --- | --- | --- |
| O=C(CN1CCN(C(=O)Cc2ccc(Cl)c(Cl)c2)[C@H]2[C@H]1COC[C@@H]2N1CCCC1)N1CCCC1 (racemic) [rac-5A113] | 70 | 92 | – |
| N#CCN1CCN(C(=O)Cc2ccc(Cl)c(Cl)c2)[C@H]2[C@H]1COC[C@@H]2N1CCCC1 (racemic) [rac-5A87] | 20 | 115 | – |
| O=C(Cc1ccc(Cl)c(Cl)c1)N1CCN(Cc2ccc(F)cc2)[C@H]2COC[C@@H](N3CCCC3)[C@@H]21 (single isomer, unassigned) [Example 5A136B] | 74 | 129 | – |
| Cc1nnc(CN2CCN(C(=O)Cc3ccc(Cl)c(Cl)c3)[C@H]3[C@H]2COC[C@@H]3N2CCCC2)o1 (racemic) [rac-5A118] | 40 | 91 | – |
| CS(=O)(=O)CCN1CCN(C(=O)Cc2ccc(Cl)c(Cl)c2)[C@H]2[C@H]1COC[C@@H]2N1CCCC1 (racemic) [rac-5A94] | 27 | 109 | – |
| O=C(Cc1ccc(Cl)c(Cl)c1)N1CCN(CC2COC2)[C@@H]2COC[C@H](N3CCCC3)[C@H]21 (single isomer, unassigned) [Example 5A83A] | 199 | 141 | – |
| CN(C)S(=O)(=O)N1CCN(C(=O)Cc2ccc(Cl)c(Cl)c2)[C@H]2[C@H]1COC[C@@H]2N1CCCC1 (single isomer, unassigned) [Example 5A56A] | 11 | 77 | – |
| O=C(Cc1ccc(Cl)c(Cl)c1)N1CCN(Cc2ccon2)[C@H]2COC[C@@H](N3CCCC3)[C@@H]21 [Example 5A86B] | 23 | 79 | – |
| COCCS(=O)(=O)N1CCN(C(=O)Cc2ccc(Cl)c(Cl)c2)[C@H]2[C@H](N3CCCC3)COC[C@@H]21 (single isomer, unassigned) [Example 5A146B] | 115 | 127 | – |
| O=C(Cc1ccc(Cl)c(Cl)c1)N1CCN(CCO)[C@@H]2COC[C@H](N3CCCC3)[C@H]21 (single isomer, unassigned) [Example 5A74A] | 21 | 95 | – |
| COCCN1CCN(C(=O)Cc2ccc(Cl)c(Cl)c2)[C@H]2[C@H](N3CCCC3)COC[C@@H]21 (single isomer, unassigned) [Example 5A141B] | 26 | 103 | – |
| O=C(Cc1ccc(Cl)c(Cl)c1)N1CCN(CCC2COC2)[C@@H]2COC[C@H](N3CCCC3)[C@H]21 (single isomer, unassigned) [Example 5A142A] | 70 | 77 | – |
| O=C(Cc1ccc(Cl)c(Cl)c1)N1CCN(CCCO)[C@@H]2COC[C@H](N3CCCC3)[C@H]21 (racemic) [rac-5A75] | 39 | 89 | – |
| O=C(Cc1ccc(Cl)c(Cl)c1)N1CCN(C(=O)C2(O)CC2)[C@H]2COC[C@@H](N3CCCC3)[C@@H]21 (single isomer, unassigned) [Example 5A126B] | 17 | 107 | – |
| O=C(Cc1ccc(Cl)c(Cl)c1)N1CCN(CC2CCOC2)[C@@H]2COC[C@H](N3CCCC3)[C@H]21 (stereo partly drawn) [Example 5A93] | 46 | 80 | – |
| O=C(Cc1ccc(Cl)c(Cl)c1)N1CCN(S(=O)(=O)CCO)[C@H]2COC[C@@H](N3CCCC3)[C@@H]21 (single isomer, unassigned) [Example 5A140B] | 22 | 107 | – |
| O=C(Cc1ccc(Cl)c(Cl)c1)N1CCN(Cc2ccc(F)cc2)[C@@H]2COC[C@H](N3CCCC3)[C@H]21 (single isomer, unassigned) [Example 5A136A] | 7 | 105 | – |
| O=C(Cc1ccc(Cl)c(Cl)c1)N1CCN(Cc2ccn[nH]2)[C@@H]2COC[C@H](N3CCCC3)[C@H]21 (racemic) [rac-5A108] | 26 | 98 | – |
| O=C(Cc1ccc(Cl)c(Cl)c1)N1CCN(C(=O)CO)[C@@H]2COC[C@H](N3CCCC3)[C@H]21 (single isomer, unassigned) [Example 5A95A] | 21 | 87 | – |
| O=C(Cc1ccc(Cl)c(Cl)c1)N1CCN(C(=O)c2cc[nH]n2)[C@@H]2COC[C@H](N3CCCC3)[C@H]21 (racemic) [rac-5A122] | 31 | 79 | – |
| CN(C)S(=O)(=O)N1CCN(C(=O)Cc2ccc(Cl)c(Cl)c2)[C@H]2[C@H](N3CCCC3)COC[C@@H]21 (single isomer, unassigned) [Example 5A56B] | 123 | 122 | – |
| O=C(Cc1ccc(Cl)c(Cl)c1)N1CCN(C(=O)C2(O)CCCC2)[C@H]2COC[C@@H](N3CCCC3)[C@@H]21 (single isomer, unassigned) [Example 5A125B] | 35 | 81 | – |
| CC(F)(F)CN1CCN(C(=O)Cc2ccc(Cl)c(Cl)c2)[C@H]2[C@H]1COC[C@@H]2N1CCCC1 [Example 5A127A] | 5.3 | 110 | – |
| CC(F)(F)CN1CCN(C(=O)Cc2ccc(Cl)c(Cl)c2)[C@H]2[C@H](N3CCCC3)COC[C@@H]21 [Example 5A127B] | 24 | 88 | – |

| Structure (SMILES) | EC50 (GTPγS EC50 (nM), Table D) [nM] | Emax [%] | EC50 [nM] |
| --- | --- | --- | --- |
| O=C(Cc1ccc(Cl)c(Cl)c1)N1CCN(Cc2cccc(F)c2)[C@@H]2COC[C@H](N3CCCC3)[C@H]21 (single isomer, unassigned) [Example 5A145A] | 5 | 95 | – |
| COCCN1CCN(C(=O)Cc2ccc(Cl)c(Cl)c2)[C@H]2[C@H]1COC[C@@H]2N1CCCC1 (single isomer, unassigned) [Example 5A141A] | 37 | 96 | – |
| NC(=O)CN1CCN(C(=O)Cc2ccc(Cl)c(Cl)c2)[C@H]2[C@H]1COC[C@@H]2N1CCCC1 (racemic) [rac-5A102] | 37 | 96 | – |
| O=C(Cc1ccc(Cl)c(Cl)c1)N1CCN(Cc2ncco2)[C@@H]2COC[C@H](N3CCCC3)[C@H]21 (racemic) [rac-5A111] | 9.8 | 146 | – |
| O=C(Cc1ccc(Cl)c(Cl)c1)N1CCN(S(=O)(=O)CCO)[C@@H]2COC[C@H](N3CCCC3)[C@H]21 (single isomer, unassigned) [Example 5A140A] | 20 | 112 | – |
| Cn1nccc1CN1CCN(C(=O)Cc2ccc(Cl)c(Cl)c2)[C@H]2[C@H]1COC[C@@H]2N1CCCC1 (racemic) [rac-5A104] | 9 | 74 | – |
| O=C(Cc1ccc(Cl)c(Cl)c1)N1CCN(Cc2ncccn2)[C@@H]2COC[C@H](N3CCCC3)[C@H]21 (racemic) [rac-5A69] | 94 | 114 | – |
| CCNC(=O)CN1CCN(C(=O)Cc2ccc(Cl)c(Cl)c2)[C@H]2[C@H]1COC[C@@H]2N1CCCC1 (racemic) [rac-5A112] | 85 | 75 | – |
| O=C(O)CN1CCN(C(=O)Cc2ccc(Cl)c(Cl)c2)[C@H]2[C@H]1COC[C@@H]2N1CCCC1 (racemic) [rac-5A88] | – | 83 | 2490 |
| O=C(Cc1ccc(Cl)c(Cl)c1)N1CCN(C(=O)c2ccno2)[C@@H]2COC[C@H](N3CCCC3)[C@H]21 (racemic) [rac-5A121] | 17 | 86 | – |
| O=C(Cc1ccc(Cl)c(Cl)c1)N1CCN(Cc2ccccn2)[C@@H]2COC[C@H](N3CCCC3)[C@H]21 (racemic) [rac-5A80] | 64 | 94 | – |
| O=C(Cc1ccc(Cl)c(Cl)c1)N1CCN(Cc2ccon2)[C@@H]2COC[C@H](N3CCCC3)[C@H]21 [Example 5A86A] | 1 | 99 | – |
| O=C(Cc1ccc(Cl)c(Cl)c1)N1CCN(CC2CCS(=O)(=O)CC2)[C@@H]2COC[C@H](N3CCCC3)[C@H]21 (racemic) [rac-5A85] | – | 100 | 320 |
| O=C(Cc1ccc(Cl)c(Cl)c1)N1CCN(C(=O)c2ccon2)[C@@H]2COC[C@H](N3CCCC3)[C@H]21 (racemic) [rac-5A97] | 0.8 | 88 | – |
| Cc1noc(CN2CCN(C(=O)Cc3ccc(Cl)c(Cl)c3)[C@H]3[C@H]2COC[C@@H]3N2CCCC2)n1 (racemic) [rac-5A105] | 19 | 82 | – |
| O=C(Cc1ccc(Cl)c(Cl)c1)N1CCN(C(=O)C2(O)CC2)[C@@H]2COC[C@H](N3CCCC3)[C@H]21 (single isomer, unassigned) [Example 5A126A] | 16 | 98 | – |
| O=C(Cc1ccc(Cl)c(Cl)c1)N1CCN(C(=O)C2(O)CCCC2)[C@@H]2COC[C@H](N3CCCC3)[C@H]21 (single isomer, unassigned) [Example 5A125A] | 58 | 95 | – |
| O=C(Cc1ccc(Cl)c(Cl)c1)N1CCN(C(=O)c2cn[nH]c2)[C@@H]2COC[C@H](N3CCCC3)[C@H]21 (racemic) [rac-5A123] | 39 | 62 | – |
| O=C(Cc1ccc(Cl)c(Cl)c1)N1CCN(CC2CCOCC2)[C@@H]2COC[C@H](N3CCCC3)[C@H]21 (racemic) [rac-5A84] | – | 84 | 136 |
| CC(O)CN1CCN(C(=O)Cc2ccc(Cl)c(Cl)c2)[C@H]2[C@H]1COC[C@@H]2N1CCCC1 (stereo partly drawn) [Example 5A89] | 34 | 93 | – |
| O=C(Cc1ccc(Cl)c(Cl)c1)N1CCN(CC2CCCO2)[C@H]2COC[C@@H](N3CCCC3)[C@@H]21 (single isomer, unassigned) [Example 5A138D] | 100 | 102 | – |
| COCCS(=O)(=O)N1CCN(C(=O)Cc2ccc(Cl)c(Cl)c2)[C@H]2[C@H]1COC[C@@H]2N1CCCC1 (single isomer, unassigned) [Example 5A146A] | 9.2 | 91 | – |
| O=C(Cc1ccc(Cl)c(Cl)c1)N1CCN(Cc2ncon2)[C@@H]2COC[C@H](N3CCCC3)[C@H]21 (racemic) [rac-5A100] | 1.9 | 86 | – |
| O=C(Cc1ccc(Cl)c(Cl)c1)N1CCN(CC2COC2)[C@H]2COC[C@@H](N3CCCC3)[C@@H]21 (single isomer, unassigned) [Example 5A83B] | 24 | 113 | – |
